Reference: US10363251B2, “(+)-morphinans as antagonists of toll-like receptor 9 and therapeutic uses thereof” (Mallinckrodt LLC, priority 2009, dated 2019)

Columns and labels:
Type in all cases: cell-based
[1] = target: T1, TLR3 (Homo sapiens, UniProt O15455); assay: TLR3 antagonist screening, NF-κB-inducible SEAP reporter in HEK293 cells; conditions: for Average % Inhibition at TLR3: 10 μM, stimulated with poly(I:C) at 1 μg/ml
T1 construct: expressed in transfected cells; host or cells: HEK293
Description: (§1) Stimulation of TLRs 2, 3, 4, 5, 7, 8, and 9 was determined by assessing activation of the transcription factor NF-κB in HEK293 cells that were engineered to express the corresponding receptors. Assessment of TLR stimulation was based on the use of an NF-κB-inducible secreted alkaline phosphatase (SEAP) reporter system in which the SEAP reporter was under the control of a promoter inducible by NF-κB. Thus, the degree of activation of TLRs can be indirectly quantified spectrophotometrically by measuring the amount of the SEAP reporter that is produced.
(§2) The appropriate TLR-expressing cells were plated in Growth Medium in a 96-well plate (25,000-50,000 cells/well). The cells were stimulated with the appropriate positive control ligand or no ligand was added (negative control). The positive control ligands were: HKLM was used to stimulate TLR2; poly(I:C) was used to stimulate TLR3; LPS was used to stimulate TLR4; Flagellin was used to stimulate TLR5; CL097 was used to stimulate TLR7; CL075 was used to stimulate TLR8; CpG oligodeoxynucleotide (ODN) 2006 was used to stimulate TLR9. To test whether (+)-morphinans could block that activation of the TLR, the cells were pretreated with an antagonist for 30 minutes prior to addition of the positive control ligand. For this, 20 μL of the stock test compound solution (100 μM in H2O) was added to give a total volume of 200 μL. […] After a 16-20 hr incubation period at 37° C. in a CO2 incubator, 20 μL of the cell culture supernatant was added to 180 μL of QUANTI-Blue™ Media (InvivoGen, San Diego, Calif.), and the resulting solutions were incubated at 37° C. for an additional 1-3 hours according to the manufacturer's instructions. The OD's of the samples were then read at 650 nm on a Beckman Coulter AD 340C Absorbance Detector.

[2] = target: T2, TLR8 (Homo sapiens, UniProt Q9NR97); assay: TLR8 antagonist screening, NF-κB-inducible SEAP reporter in HEK293 cells; conditions: for Average % Inhibition at TLR8: 10 μM, stimulated with CL075 at 1 μg/ml
T2 construct: expressed in transfected cells; host or cells: HEK293
T2 sequence (Q9NR97 27-1041): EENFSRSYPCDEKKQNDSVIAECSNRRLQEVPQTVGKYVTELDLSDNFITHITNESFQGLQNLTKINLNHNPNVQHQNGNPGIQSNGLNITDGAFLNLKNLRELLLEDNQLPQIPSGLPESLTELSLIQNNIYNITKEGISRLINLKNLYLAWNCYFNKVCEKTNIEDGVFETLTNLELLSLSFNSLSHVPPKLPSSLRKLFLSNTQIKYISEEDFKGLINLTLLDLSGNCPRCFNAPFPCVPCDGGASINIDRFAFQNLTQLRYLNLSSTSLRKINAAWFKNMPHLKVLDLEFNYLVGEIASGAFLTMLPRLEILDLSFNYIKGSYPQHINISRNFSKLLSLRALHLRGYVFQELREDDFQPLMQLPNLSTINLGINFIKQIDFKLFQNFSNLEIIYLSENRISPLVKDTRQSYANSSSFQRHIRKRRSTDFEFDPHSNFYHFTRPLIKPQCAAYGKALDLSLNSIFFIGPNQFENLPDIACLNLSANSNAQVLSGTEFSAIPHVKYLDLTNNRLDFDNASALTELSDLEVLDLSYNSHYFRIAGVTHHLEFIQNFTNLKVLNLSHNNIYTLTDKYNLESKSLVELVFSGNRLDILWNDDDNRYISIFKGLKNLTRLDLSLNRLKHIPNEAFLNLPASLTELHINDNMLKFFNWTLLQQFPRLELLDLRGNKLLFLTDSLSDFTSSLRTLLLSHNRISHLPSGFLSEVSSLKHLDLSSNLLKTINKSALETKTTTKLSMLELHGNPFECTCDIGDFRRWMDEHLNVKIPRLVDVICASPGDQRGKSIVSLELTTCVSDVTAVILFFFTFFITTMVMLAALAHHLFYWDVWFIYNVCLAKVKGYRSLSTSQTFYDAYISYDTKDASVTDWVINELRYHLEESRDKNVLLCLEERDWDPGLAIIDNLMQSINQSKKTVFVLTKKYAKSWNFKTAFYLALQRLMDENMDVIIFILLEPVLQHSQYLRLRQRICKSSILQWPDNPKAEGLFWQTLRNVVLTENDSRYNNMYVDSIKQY
Description: as §1
as §2, with “ligand.” for “ligand. For this, 20 μL of the stock test compound solution (100 μM in H2O) was added to give a total volume of 200 μL.”

[3] = target: T3, TLR2 (Homo sapiens, UniProt O60603); assay: TLR2 antagonist screening, NF-κB-inducible SEAP reporter in HEK293 cells; conditions: for Average % Inhibition at TLR2: 10 μM, stimulated with HKLM at 10^8 cell/ml
T3 construct: expressed in transfected cells; host or cells: HEK293
Description: as §1, §2

[4] = target: T4, TLR5 (Homo sapiens, UniProt O60602); assay: TLR5 antagonist screening, NF-κB-inducible SEAP reporter in HEK293 cells; conditions: for Average % Inhibition at TLR5: 10 μM, stimulated with Flagellin at 100 ng/ml
T4 construct: expressed in transfected cells; host or cells: HEK293
Description: as §1, §2

T3 sequence (O60603 21-784, species assumed): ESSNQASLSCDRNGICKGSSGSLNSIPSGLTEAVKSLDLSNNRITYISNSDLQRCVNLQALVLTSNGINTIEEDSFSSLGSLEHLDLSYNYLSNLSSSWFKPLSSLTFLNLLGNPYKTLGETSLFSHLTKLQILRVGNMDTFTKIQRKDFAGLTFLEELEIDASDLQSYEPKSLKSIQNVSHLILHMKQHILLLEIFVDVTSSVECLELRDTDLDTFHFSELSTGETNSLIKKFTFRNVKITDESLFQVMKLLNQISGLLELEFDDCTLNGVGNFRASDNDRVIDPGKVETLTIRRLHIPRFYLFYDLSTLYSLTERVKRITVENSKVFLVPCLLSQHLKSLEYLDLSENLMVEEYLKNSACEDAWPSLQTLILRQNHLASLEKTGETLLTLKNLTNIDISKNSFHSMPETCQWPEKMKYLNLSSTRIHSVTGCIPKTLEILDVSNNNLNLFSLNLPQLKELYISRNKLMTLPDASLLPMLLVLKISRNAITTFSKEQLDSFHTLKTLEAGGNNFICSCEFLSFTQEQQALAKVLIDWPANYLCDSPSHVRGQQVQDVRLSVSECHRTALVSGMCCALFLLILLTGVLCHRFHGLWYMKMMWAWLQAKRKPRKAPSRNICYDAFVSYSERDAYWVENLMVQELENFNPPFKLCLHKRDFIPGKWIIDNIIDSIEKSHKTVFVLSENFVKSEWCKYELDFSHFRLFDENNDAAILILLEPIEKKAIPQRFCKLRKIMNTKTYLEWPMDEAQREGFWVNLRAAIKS
T1 sequence (O15455 24-904, species assumed): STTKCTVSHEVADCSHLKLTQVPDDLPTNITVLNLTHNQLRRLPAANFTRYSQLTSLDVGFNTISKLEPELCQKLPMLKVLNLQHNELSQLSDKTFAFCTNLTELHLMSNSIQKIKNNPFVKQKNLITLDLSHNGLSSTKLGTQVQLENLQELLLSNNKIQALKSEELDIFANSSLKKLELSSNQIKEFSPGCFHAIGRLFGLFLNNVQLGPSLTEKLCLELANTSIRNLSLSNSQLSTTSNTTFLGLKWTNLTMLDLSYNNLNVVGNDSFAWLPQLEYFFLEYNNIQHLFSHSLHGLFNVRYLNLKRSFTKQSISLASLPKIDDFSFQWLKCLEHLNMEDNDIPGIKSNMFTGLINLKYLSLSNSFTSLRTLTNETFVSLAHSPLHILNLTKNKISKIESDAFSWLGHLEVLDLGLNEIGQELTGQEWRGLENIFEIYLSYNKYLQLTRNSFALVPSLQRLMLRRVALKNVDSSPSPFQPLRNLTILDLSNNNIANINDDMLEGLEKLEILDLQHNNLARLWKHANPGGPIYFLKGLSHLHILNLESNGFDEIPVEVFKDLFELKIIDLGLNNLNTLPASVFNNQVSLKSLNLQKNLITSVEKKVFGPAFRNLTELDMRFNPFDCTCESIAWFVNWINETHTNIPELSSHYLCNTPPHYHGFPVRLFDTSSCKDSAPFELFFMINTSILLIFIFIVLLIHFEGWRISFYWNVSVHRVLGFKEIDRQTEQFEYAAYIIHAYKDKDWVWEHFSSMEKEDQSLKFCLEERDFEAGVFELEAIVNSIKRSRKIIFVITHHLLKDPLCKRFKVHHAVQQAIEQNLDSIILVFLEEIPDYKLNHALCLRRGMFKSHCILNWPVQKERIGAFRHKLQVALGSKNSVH
T4 sequence (O60602 21-858, species assumed): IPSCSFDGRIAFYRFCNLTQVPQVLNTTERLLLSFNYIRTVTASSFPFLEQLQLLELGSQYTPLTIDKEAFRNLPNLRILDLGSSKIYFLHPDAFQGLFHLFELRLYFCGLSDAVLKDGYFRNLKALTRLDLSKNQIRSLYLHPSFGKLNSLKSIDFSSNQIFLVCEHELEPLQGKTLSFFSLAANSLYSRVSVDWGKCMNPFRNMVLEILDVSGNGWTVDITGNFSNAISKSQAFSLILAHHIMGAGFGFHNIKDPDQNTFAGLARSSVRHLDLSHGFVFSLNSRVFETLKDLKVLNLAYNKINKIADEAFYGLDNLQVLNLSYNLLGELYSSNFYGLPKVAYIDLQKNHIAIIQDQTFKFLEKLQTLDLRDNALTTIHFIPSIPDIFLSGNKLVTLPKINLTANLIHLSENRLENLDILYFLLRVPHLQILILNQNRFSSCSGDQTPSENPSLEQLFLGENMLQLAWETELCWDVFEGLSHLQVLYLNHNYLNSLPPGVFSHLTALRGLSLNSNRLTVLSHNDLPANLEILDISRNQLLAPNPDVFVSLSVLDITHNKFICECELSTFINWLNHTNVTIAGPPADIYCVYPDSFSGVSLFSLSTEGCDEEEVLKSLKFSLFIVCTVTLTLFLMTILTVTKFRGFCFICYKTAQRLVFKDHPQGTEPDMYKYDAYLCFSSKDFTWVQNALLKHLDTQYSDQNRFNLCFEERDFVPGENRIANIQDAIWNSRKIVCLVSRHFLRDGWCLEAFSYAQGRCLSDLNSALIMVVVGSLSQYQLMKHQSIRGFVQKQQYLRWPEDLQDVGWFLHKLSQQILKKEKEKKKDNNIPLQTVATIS

Structure (SMILES)	Average % Inhibition at TLR3 [1]	Average % Inhibition at TLR8 [2]	Average % Inhibition at TLR2 [3]	Average % Inhibition at TLR5 [4]	inhibition at 10 µM ([1]; HEK293, stimulated with poly(I:C) at 1 μg/ml)	inhibition at 10 µM ([2]; HEK293, stimulated with CL075 at 1 μg/ml)	inhibition at 10 µM ([3]; HEK293, stimulated with HKLM at 10^8 cell/ml)	inhibition at 10 µM ([4]; HEK293, stimulated with Flagellin at 100 ng/ml)
C=CCN1CC[C@]23c4c5ccc(O)c4O[C@H]2C(=O)CC[C@]3(O)[C@H]1C5 [(+)-Naloxone, (+)-naloxone]	27%	24%	24%	17%				
COc1ccc2c(c1O)[C@@]13CCN(C)[C@@H](C2)[C@H]1CC(OC)C(=O)C3 (stereo partly drawn) [Dihydrosinomenine, dihydrosinomenine]	40%	21%	27%	16%				
COC1=C[C@@H]2[C@@H]3Cc4ccc(OC)c(O)c4[C@]2(CCN3C)CC1=O [Sinomenine, sinomenine]					28%	20%	30%	19%
